Reference: patent US6680335B2, “Methods of modulating protein tyrosine kinase function with substituted indolinone compounds” (Sugen, Inc., priority 1998, dated 2004)

How the values were obtained:
FLK-1 receptor = target: T1, FLK-1 receptor (Mus musculus, UniProt P35918); assay: ELISA assay measuring the kinase activity of the FLK-1 receptor in cells engineered to express FLK-1; type: cell-based; conditions: FLK-1 expressing NIH3T3 C7#3 cells, VEGF stimulated; for inhibition at 100 µM: compound at 100 μM
T1 construct: expressed in transfected cells; host or cells: NIH3T3 C7#3 cells
T1 sequence (P35918 20-1345): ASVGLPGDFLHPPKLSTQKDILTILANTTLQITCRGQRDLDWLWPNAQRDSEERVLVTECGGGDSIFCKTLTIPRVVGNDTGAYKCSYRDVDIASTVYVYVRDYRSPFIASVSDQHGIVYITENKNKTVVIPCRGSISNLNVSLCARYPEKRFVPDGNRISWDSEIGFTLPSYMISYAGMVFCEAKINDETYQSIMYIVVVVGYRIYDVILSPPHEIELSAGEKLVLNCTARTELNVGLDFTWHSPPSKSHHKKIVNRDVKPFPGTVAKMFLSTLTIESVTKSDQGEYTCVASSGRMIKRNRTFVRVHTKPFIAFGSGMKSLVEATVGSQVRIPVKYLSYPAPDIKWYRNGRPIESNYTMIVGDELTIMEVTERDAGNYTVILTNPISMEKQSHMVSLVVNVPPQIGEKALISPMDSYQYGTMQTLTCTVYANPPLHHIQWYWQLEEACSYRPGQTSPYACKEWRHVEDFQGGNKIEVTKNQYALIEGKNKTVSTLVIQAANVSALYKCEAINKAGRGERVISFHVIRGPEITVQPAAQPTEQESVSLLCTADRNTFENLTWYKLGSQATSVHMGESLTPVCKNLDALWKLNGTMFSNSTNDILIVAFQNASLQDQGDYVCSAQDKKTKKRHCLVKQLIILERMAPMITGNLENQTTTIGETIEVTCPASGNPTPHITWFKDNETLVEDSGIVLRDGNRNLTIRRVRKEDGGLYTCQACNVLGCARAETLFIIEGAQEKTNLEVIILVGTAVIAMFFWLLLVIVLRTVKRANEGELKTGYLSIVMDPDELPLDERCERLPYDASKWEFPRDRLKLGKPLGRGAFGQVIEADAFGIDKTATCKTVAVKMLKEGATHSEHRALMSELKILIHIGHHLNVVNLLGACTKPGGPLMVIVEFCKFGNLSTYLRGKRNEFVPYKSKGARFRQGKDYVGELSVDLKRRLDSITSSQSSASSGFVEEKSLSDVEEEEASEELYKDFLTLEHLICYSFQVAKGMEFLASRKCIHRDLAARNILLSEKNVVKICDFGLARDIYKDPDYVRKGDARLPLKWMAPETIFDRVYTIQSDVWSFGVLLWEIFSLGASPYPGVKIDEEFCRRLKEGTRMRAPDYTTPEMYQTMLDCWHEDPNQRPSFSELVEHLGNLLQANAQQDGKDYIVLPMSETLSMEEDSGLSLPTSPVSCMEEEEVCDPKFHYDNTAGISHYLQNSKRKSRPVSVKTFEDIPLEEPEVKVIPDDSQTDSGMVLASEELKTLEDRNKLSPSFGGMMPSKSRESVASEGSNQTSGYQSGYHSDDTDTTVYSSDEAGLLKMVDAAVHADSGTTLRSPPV
Method: An ELISA assay was conducted to measure the kinase activity of the FLK-1 receptor and more specifically, the inhibition or activation of TK activity on the FLK-1 receptor. Specifically, the following assay was conducted to measure kinase activity of the FLK-1 receptor in cells genetically engineered to express FLK-1.
(11) NIH3T3 C7#3 Cells (FLK-1 expressing cells);
The following protocol was used for conducting the assay:
1. Coat Corning 96-well elisa plates with 1.0 μg per well Cappel Anti-rabbit IgG antibody in 0.1 M Na2CO3 pH 9.6. Bring final volume to 150 μL per well. Coat plates overnight at 4° C. Plates can be kept up to two weeks when stored at 4° C.
2. Grow cells in Growth media (DMEM, supplemental with 2.0 mM L-Glutamine, 10% FBS) in suitable culture dishes until confluent at 37° C., 5% CO2.
3. Harvest cells by trypsinization and seed in Corning 25850 polystyrene 96-well roundbottom cell plates, 25.000 cells/well in 200 μL of growth media.
4. Grow cells at least one day at 37° C., 5% CO2.
5. Wash cells with D-PBS 1×.
6. Add 200 μL/well of starvation media (DMEM, 2.0 mM 1-Glutamine, 0.1% FBS). Incubate overnight at 37° C., 5% CO2.
7. Dilute Compounds 1:20 in polypropylene 96 well plates using starvation media. Dilute dimethylsulfoxide 1:20 for use in control wells.
8. Remove starvation media from 96 well cell culture plates and add 162 μL of fresh starvation media to each well.
9. Add 18 μL of 1:20 diluted Compound dilution (from step 7) to each well plus the 1:20 dimethylsulfoxide dilution to the control wells (+/−VEGF), for a final dilution of 1:200 after cell stimulation. Final dimethylsulfoxide is 0.5%. Incubate the plate at 37° C., 5% CO2 for two hours.
10. Remove unbound antibody from ELISA plates by inverting plate to remove liquid. Wash 3 times with TBSW+0.5% ethanolamine, pH 7.0. Pat the plate on a paper towel to remove excess liquid and bubbles.
11. Block plates with TBSW+0.5% Ethanolamine, pH 7.0, 150 μL per well. Incubate plate thirty minutes while shaking on a microliter plate shaker.
12. Wash plate 3 times as described in step 10.
13. […] Bring final volume to 150 μL/well with TBSW+0.5% ethanolamine pH 7.0. Incubate plate for thirty minutes while shaking.
14. Add 180 μL starvation medium to the cells and stimulate cells with 20 μL/well 10.0 mM sodium ortho vanadate and 500 ng/mL VEGF (resulting in a final concentration of 1.0 mM sodium ortho vanadate and 50 ng/mL VEGF per well) for eight minutes at 37° C., 5% CO2. Negative control wells receive only starvation medium.
15. After eight minutes, media should be removed from the cells and washed one time with 200 μL/well PBS.
16. Lyse cells in 150 μL/well HNTG while shaking at room temperature for five minutes. HNTG formulation includes sodium ortho vanadate, sodium pyro phosphate and EDTA.
17. Wash ELISA plate three times as described in step 10.
18. Transfer cell lysates from the cell plate to ELISA plate and incubate while shaking for two hours. To transfer cell lysate pipette up and down while scrapping the wells.
19. Wash plate three times as described in step 10.
20. Incubate ELISA plate with 0.02 μg/well UB40 in TBSW+05% ethanolamine. Bring final volume to 150 μL/well. Incubate while shaking for 30 minutes.
21. Wash plate three times as described in step 10.
22. Incubate ELISA plate with 1:10,000 diluted EIA grade goat anti-mouse IgG conjugated horseradish peroxidase in TBSW+0.5% ethanolamine, pH 7.0. Bring final volume to 150 μL/well. Incubate while shaking for thirty minutes.
23. Wash plate as described in step 10.
24. Add 100 μL of ABTS/H2O2 solution to well. Incubate ten minutes while shaking.
25. Add 100 μL of 0.2 M HCl for 0.1 M HCl final to stop the color development reaction. Shake 1 minute at room temperature. Remove bubbles with slow stream of air and read the ELISA plate in an ELISA plate reader at 410 nm.
(§1) The IC50 values were measured for several of the compounds of the invention.

pyk-2 protein kinase = target: T2, pyk-2 protein kinase (Homo sapiens, UniProt Q14289); assay: Assay measuring PYK-2 protein kinase activity (phosphorylation of a biotinylated peptide); type: biochemical; conditions: pyk-2 from transformed yeast lysate, 5 μM ATP; compound at 100 μM
T2 construct: made in house; host or cells: Schizosaccharomyces pombe strain SP200, pRSP expression plasmids
T2 sequence (Q14289 whole entry): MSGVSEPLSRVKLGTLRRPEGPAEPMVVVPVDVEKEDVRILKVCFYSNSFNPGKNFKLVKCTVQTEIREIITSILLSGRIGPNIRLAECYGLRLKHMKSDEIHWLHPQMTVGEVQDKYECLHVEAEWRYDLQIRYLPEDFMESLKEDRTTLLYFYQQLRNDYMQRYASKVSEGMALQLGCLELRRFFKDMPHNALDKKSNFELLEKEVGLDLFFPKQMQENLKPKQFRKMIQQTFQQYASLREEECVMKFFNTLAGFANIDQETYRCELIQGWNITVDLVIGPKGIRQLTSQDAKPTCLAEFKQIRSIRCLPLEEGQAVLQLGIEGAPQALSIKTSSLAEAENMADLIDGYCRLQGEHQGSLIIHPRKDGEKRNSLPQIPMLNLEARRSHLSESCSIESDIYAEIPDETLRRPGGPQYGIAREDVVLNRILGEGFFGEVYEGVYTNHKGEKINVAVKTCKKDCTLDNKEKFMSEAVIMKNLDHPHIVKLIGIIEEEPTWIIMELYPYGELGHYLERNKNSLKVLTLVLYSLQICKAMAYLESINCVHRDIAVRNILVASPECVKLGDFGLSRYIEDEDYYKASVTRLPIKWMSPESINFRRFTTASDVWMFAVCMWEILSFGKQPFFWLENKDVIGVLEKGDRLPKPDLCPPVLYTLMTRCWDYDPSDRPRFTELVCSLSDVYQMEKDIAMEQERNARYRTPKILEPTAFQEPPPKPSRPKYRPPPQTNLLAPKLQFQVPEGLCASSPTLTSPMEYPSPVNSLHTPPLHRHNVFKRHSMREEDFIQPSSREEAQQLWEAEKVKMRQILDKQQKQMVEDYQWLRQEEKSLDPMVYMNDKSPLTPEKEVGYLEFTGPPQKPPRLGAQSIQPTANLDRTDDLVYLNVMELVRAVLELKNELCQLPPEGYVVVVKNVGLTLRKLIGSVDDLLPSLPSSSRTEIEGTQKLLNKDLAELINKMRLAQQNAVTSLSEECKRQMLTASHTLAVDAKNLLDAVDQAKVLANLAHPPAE
Method: This assay is used to determine pyk-2 protein kinase activity measuring phosphorylation of a biotinylated peptide as the readout.
a. Yeast transformed with pyk-2.
b. Cell lysates: Yeast cells expressing pyk-2 are pelleted, washed once with water, re-pelleted and stored at −80° C. until use.
(§2) c. N-terminus biotinylated […] is prepared by standard procedures well known to those skilled in the art.
(§3) h. […] S. Pombe strain SP200 (h-s leul.32 ura4 ade21O) was grown as described and transformations were pRSP expression plasmids were done by the lithium acetate method (Superti-Furga, supra). Cells were grown in the presence of 1 μM thiamine to repress expression from the nmtl promoter or in the absence of thiamine to induce expression.
a. Preparation of pyk-2 coated ELISA plate.
1. Coat ELISA plate with 0.5 μg/well anti-pyk-2 mab in 100 μL of pH 9.6 sodium carbonate buffer at 4° C. overnight.
(§4) 2. Wash wells once with PBS.
(§5) 3. Block plate with 0.15 mL 5% milk in PBS for 30 min. at room temperature.
(§6) 4. Wash plate 5× with PBS.
5. Add 10 μg/well of pyk-2 transformed yeast lysates diluted in Lysis Buffer (0.1 mL total volume per well). (Amount of lysate may vary between hatches.) Shake plate for 20 minutes at room temperature.
(§7) b. Preparation of phosphotyrosine antibody-coated ELISA plate.
(§8) 1. 4G10 plate: coat 0.5 μg/well 4G10 in 100 μL PBS overnight at 4° C. and block with 150 μL of 5% milk in PBS for 30 minutes at room temperature.
(§9) c. Kinase assay procedure.
(§10) 1. Remove unbound proteins from steps 1-7, above, and wash plates 5× with PBS.
2. Add 0.08 mL Kinase Reaction Mixture per well (containing […] of 10×Kinase Buffer and 10 pM (final concentration) biotin-[…] per well diluted in water.
(§11) 3. Add 10 μL of compound diluted in water containing 10% DMSO and pre-incubate for 15 minutes at room temperature.
(§12) 4. Start kinase reaction by adding 10 μL/well of 0.05 mM ATP in water (5 μM ATP final).
(§13) 5. Shake ELISA plate for 15 min. at room temperature.
(§14) 6. Stop kinase reaction by adding 10 μL of 0.5 M EDTA per well.
(§15) 7. Transfer 90 μL supernatant to a blocked 4G10 coated ELISA plate from section B, above.
(§16) 8. Incubate for 30 min. while shaking at room temperature.
(§17) 9. Wash plate 5× with TBST.
(§18) 10. Incubate with Vectastain ELITE ABC reagent (100 μL/well) for 30 min. at room temperature.
(§19) 11. Wash the wells 5× with TBST.
(§20) 12. Develop with Turbo TMB.
as §1

src protein kinase = target: T3, src protein kinase (Gallus gallus, UniProt P00523); assay: Assay measuring SRC protein kinase activity (phosphorylation of a biotinylated peptide); type: biochemical; conditions: src from transformed yeast lysate, 5 μM ATP; compound at 100 μM
T3 construct: made in house; host or cells: Schizosaccharomyces pombe strain SP200, pRSP expression plasmids
Method: This assay is used to determine src protein kinase activity measuring phosphorylation of a biotinylated peptide as the readout.
a. Yeast transformed with src.
b. Cell lysates: Yeast cells expressing src are pelleted, washed once with water, re-pelleted and stored at −80° C. until use.
as §2, §3
a. Preparation of src coated ELISA plate.
1. Coat ELISA plate with 0.5 μg/well anti-src mab in 100 μL of pH 9.6 sodium carbonate buffer at 4° C. overnight.
as §4, §5, §6
5. Add 10 μg/well of src transformed yeast lysates diluted in Lysis Buffer (0.1 mL total volume per well). (Amount of lysate may vary between hatches.) Shake plate for 20 minutes at room temperature.
as §7, §8, §9, §10
2. Add 0.08 mL Kinase Reaction Mixture per well (containing 10 μL of 10×Kinase Buffer and 10 μM (final concentration) biotin-[…] per well diluted in water.
as §11, §12, §13, §14, §15, §16, §17, §18, §19, §20, §1

Row | Compound | inhibition at 100 µM (FLK-1 receptor) | inhibition at 100 µM (pyk-2 protein kinase) | inhibition at 100 µM (src protein kinase) | IC50 (FLK-1 receptor; cells without % or + sign)
1 | CNS(=O)(=O)c1ccc2c(c1)C(=Cc1[nH]c3ccccc3c1C)C(=O)N2 [IN-003, 3-(3-Methyl-1H-indol-2-ylmethylene)-2-oxo-2,3-dihydro-1H-indole-5-sulfonic acid methylamide] | 11% | 67.5% | – | –
2 | Cc1cccc2c1C(=Cc1cc3ccccc3[nH]1)C(=O)N2 [IN-015, 3-(1H-indol-2-ylmethylene)-4-methyl-1,3-dihydro-indol-2-one] | 26% | 3.9% | 16% | –
3 | O=C1Nc2ccc(Br)cc2C1=Cc1cc2ccccc2[nH]1 [IN-014, 5-Bromo-3-(1H-indol-2-ylmethylene)-1,3-dihydro-indol-2-one] | 10% | -14% | -2.4% | –
4 | Cc1c(C=C2C(=O)Nc3ccc(S(=O)(=O)N(C)C)cc32)[nH]c2ccccc12 (mixture of isomers) [IN-004, 3-(3-Methyl-1H-indol-2-ylmethylene)-2-oxo-2,3-dihydro-1H-indole-5-sulfonic acid dimethylamide] | 7% | 44.4% | -4.6% | –
5 | O=C1Nc2ccc(/N=C/c3cc4ccccc4[nH]3)cc2/C1=C/c1cc2ccccc2[nH]1 [IN-020, 3-(1H-indol-2-ylmethylene)-5-[(1H-indol-2-ylmethylene)-amino]-1,3-dihydro-indol-2-one] | – | 64.3% | 7.62% | > 100 µM
